From ChEMBL document CHEMBL1157539, “Thousands of chemical starting points for antimalarial lead identification” (Nature, 2010) come the findings set out here.

In this test the test system is Plasmodium falciparum. Briefly: GSK_TCMDC: Inhibition of Plasmodium falciparum 3D7 in whole erythrocytes, using parasite LDH activity as an index of growth. Conditions: Plasmodium falciparum, 3D7. The test is classed as functional, organism-based.
Regarding `COc1ccc(Nc2nc(N/N=C/c3ccc(-c4ccc([N+](=O)[O-])cc4)o3)nc(Nc3ccccc3)n2)cc1`, the XC50 was 761 nM. For `Cc1ccc(Nc2nc(N/N=C/c3ccccc3[N+](=O)[O-])nc(Nc3ccc([N+](=O)[O-])cc3)n2)cc1C` the value was 692 nM. Under `CC(C)N(Cc1ccc(-c2ccc(C(F)(F)F)cc2)cc1)C(=O)Cn1c(CCc2cccc(F)c2F)cc(=O)c2ccc(CCCN3CCCCC3)cc21` stands 736 nM; under `O=C(Cn1c(CCc2cccc(F)c2F)cc(=O)c2ccccc21)N(CCN1CCCCC1)Cc1ccc(-c2ccc(C(F)(F)F)cc2)cc1`, 764 nM; under `O=C(/C=C/c1ccc(Cl)c(Cl)c1)NCCCCCN1CCCN(C(=O)Nc2ccc(Cl)c(Cl)c2)CC1`, 864 nM. Under `CCOC(=O)c1ccc(NC(=O)Nc2cccc(-c3cccc(-c4nc5cc(F)ccc5[nH]4)c3)c2)cc1` stands 94.7 nM; under `FC(F)(F)c1ccc2[nH]c(-c3ccc(-c4cccc(CNCCc5cccnc5)c4)s3)nc2c1`, 170 nM; under `CCCOc1cccc(C(=O)N[C@@H](Cc2ccccc2)[C@H](O)CNCc2cccc(OC)c2)c1`, 741 nM. In turn, `O=C(NC1CCN(Cc2ccc3c(c2)OCCO3)CC1)c1ccc(-c2cccc(Cl)c2)s1` returned an XC50 of 1910 nM.

Compound `CCCCC(O)c1cc(O)c2c(c1)OC(C)(C)CC2C1=CCN(Cc2ccc3ccccc3c2)CC1` (stereo not given) showed an XC50 of 970 nM.

In the case of `COc1ccccc1C(C)NCC(=O)Nc1ccccc1Sc1ccccc1` (stereo not given), the XC50 is 1100 nM.

`NCc1ccc(CNCc2cccc(-c3cccc(-c4nc5ccccc5[nH]4)c3)c2)cc1` gave an XC50 of 489 nM.

Regarding `O=S(=O)(Nc1cccc(CCN2CCC(N3CCCCC3)CC2)c1)c1ccccc1C(F)(F)F`, the XC50 was 1150 nM.

For the compound `N=C(N)NCCCCN(Cc1ccccc1)c1ccccc1`, the XC50 worked out at 745 nM. For `Fc1ccc2[nH]c(-c3cccc(-c4ccc(CNCc5cnn(-c6ccccc6)n5)cc4)c3)nc2c1` the value was 917 nM. Under `O=C(Nc1cccc(C(F)(F)F)c1)Nc1ccc2nonc2c1` stands 849 nM; under `CCCCCCN1CCCN(Cc2cccc(C(=O)Nc3ccc(C(C)(C)C)cc3)c2)CC1`, 943 nM; under `COc1ccc(C=NN=c2cc(C)[nH]c3ccccc23)cc1OC`, 859 nM. Under `CCC(O)c1ccc(Br)cc1NC(=O)c1cccc(Cl)c1` (stereo not given) stands 1020 nM.

Take `CC(O)C1CCCCN1C(=O)c1ccc(-c2cccc(-c3nc4cc(F)ccc4[nH]3)c2)cc1` (stereo not given): the XC50 was found to be 540 nM.

For the compound `Cc1cccc2[nH]cc(C3CCN(CC4CCC(NC(=O)/C=C/c5ccc(Cl)c(Cl)c5)CC4)CC3)c12` (stereo not given), the XC50 worked out at 163 nM.

For `Oc1ccc(Nc2nc(NCC3CCCO3)c3ccccc3n2)cc1` (stereo not given), the XC50 is 806 nM. For `CCCc1ccccc1OCC(O)CN(C1CCCC1)C1CCCC1` (stereo not given) the value was 470 nM; for `CCCC1N=C(N)N=C(N)N1c1ccc(CC)cc1` (stereo not given), 66.9 nM. Under `CCC(C)CNC(=O)CN1CN(c2ccccc2)C2(CCN(C(=O)c3ccc(Br)cc3)CC2)C1=O` (stereo not given) stands 1070 nM. For `CCn1ccc2c(N3CCCC3=O)cc(C(=O)N[C@@H](Cc3ccccc3)[C@H](O)CNC3CCCCC3)cc21` the value was 119 nM. In turn, `CN1CCN(CCCN(Cc2ccc(-c3cccc(CNC4CCCC4)c3)cc2)C(=O)Nc2ccccc2)CC1` gave an XC50 of 1120 nM.

With `COc1cccc(C(=O)Nc2ccc(Nc3nc(C)cc(N4CCCCC4)n3)cc2)c1OC`, the XC50 turned out to be 1020 nM. For `CC1=C(C(=O)OC(C)C)C(c2ccccc2Cl)C2=C(CC(c3ccccc3)CC2=O)N1` (stereo not given) the value was 850 nM; for `CCNc1cc(C(=O)N[C@@H](Cc2ccccc2)[C@H](O)CNC2(CC)CC2)cc(N2CCCCS2(=O)=O)c1`, 1610 nM. Under `Cc1noc(C)c1-c1cccc(CNCc2ccc(-c3ccc(-c4nc5ccccc5[nH]4)s3)cc2)c1` stands 556 nM; under `COc1cc(F)c2nccc([C@@H](O)CN3CCC(NCc4cc5c(cc4F)OCCO5)CC3)c2c1`, 679 nM; under `Cc1cccc2nc(-c3cccc(-c4cccc(NC(=O)CN5CCN(C)CC5)c4)c3)[nH]c12`, 533 nM. The compound `O=C(NCc1ccc(Cl)c(Cl)c1)c1ccc(-c2nc3cc(F)c(F)cc3[nH]2)cc1` registered an XC50 of 1050 nM.

`N#Cc1ccc2c(c1)CCN(CCC1CCC(NC(=O)/C=C/c3c[nH]c4c(Br)cccc34)CC1)CC2` (stereo not given) yielded an XC50 of 379 nM.

Regarding `O=C(Nc1ccccc1-c1ccccc1)C1CCCN1C(=O)Nc1ccc(Cl)cc1` (stereo not given), the XC50 worked out at 793 nM. `COc1ccc(C2CC(c3cccs3)=NN2C(=O)COc2cccc3c2CCCC3O)cc1OC` (stereo not given) returned an XC50 of 1150 nM. Under `Cn1c(NC(=O)C2CCC(CNC(=O)c3ccc(O)c(-c4ccc(Cl)c(Cl)c4)c3)CC2)nc2ccccc21` (stereo not given) stands 654 nM. `CCCNC(=O)Nc1cc2cc(-c3ccc(CN4CCCC4)cc3)ccc2n2c(C)nnc12` registered an XC50 of 1500 nM. For `NC1=NC(c2ccccc2)N(c2ccccc2)C(N)=N1` (stereo not given) the value was 294 nM; for `c1ccc2c(c1)ncc1c3ccccc3[nH]c21`, 866 nM; for `O=C(/C=C/c1ccc(Cl)c(Cl)c1)NCCCCCN1CCCC(CNS(=O)(=O)c2ccc(F)cc2)C1` (stereo not given), 1160 nM.

Compound `COc1ccc2nccc(NCC3(O)CCN(CCc4ccc5c(c4)OCCO5)CC3)c2n1` gave an XC50 of 597 nM. Under `Cc1[nH]c(C)c(-c2ccc(-c3ccc(OC(F)(F)F)cc3)cc2)c(=O)c1Br` stands 38.6 nM; under `CCC(ON1C(N)=NC(N)=NC1(C)C)c1ccc(Cl)cc1` (stereo not given), 3.2 nM. In turn, `Cc1cnc(C(=O)Nc2cccc(-c3ccc(-c4nc5cc(C(F)(F)F)ccc5[nH]4)s3)c2)cn1` yielded an XC50 of 704 nM. For `CCc1c(CCNCCCCCCNCCc2ccc(OC)cc2)ccc(OC)c1OC` the value was 871 nM; for `CC(C)COc1ccc(Cl)cc1Cc1ccc(-c2nc3cc(CCN4CCCC4)ccc3[nH]2)o1`, 730 nM; for `Fc1ccc2[nH]c(-c3ccc(-c4ccc(CN5CCCCC5)cc4)s3)nc2c1`, 602 nM.

Compound `Cc1cc(NC(=O)Nc2ccc3ccn(C)c3c2)c2ccccc2n1` yielded an XC50 of 214 nM. For `COc1ccc2nccc([C@@H](O)CN3CCC(NCCOc4ccc(F)cc4[N+](=O)[O-])CC3)c2c1` the value was 116 nM. With `CCCCCCCc1c(C)nc2cccc(OC)c2c1O`, the XC50 is 1130 nM.

For the compound `CC(C)c1ccc(CN(C)CCCCNC(=O)c2ccc(NC(=O)c3ccc(Cl)cc3)cc2)cc1`, the XC50 came out at 994 nM. The compound `CN(C)/C(=N/C(=N)Nc1ccc(Cl)cc1)NCCCCCCN/C(=N\C(=N)Nc1ccc(Cl)cc1)N(C)C` displayed an XC50 of 533 nM. For `COc1ccc2nc(C)cc(NCc3ccc4ccccc4c3)c2c1` the value was 468 nM; for `COc1ccc2nccc([C@@H](O)CN3CCC(NC(=O)c4ccc(OC)c(N)c4)CC3)c2c1`, 715 nM. For `Cc1cccc(C)c1/N=C1\NC(=S)N(c2cccc(Cl)c2)C12CCC(C(C)(C)C)CC2` (stereo not given) the value was 760 nM; for `CC1(C)[C@H]2CC[C@@H](CNc3nc(NCC(=O)Nc4ccc5ccccc5c4)nc(N4CCC(N5CCCC5)CC4)n3)[C@@H]1C2`, 1190 nM. Under `CC(=O)c1sc(NC(=O)Nc2ccc(C)cc2C)nc1C` stands 906 nM; under `CC(C)N1CCN(C(CN2CCN(CCCOc3cccc4ccccc34)CC2)c2ccc(F)cc2)CC1` (stereo not given), 879 nM.

The compound `COc1ccc(Cn2c(Nc3cccc(C(F)(F)F)c3)nc3cc(C(=O)NCCCN(C)C)ccc32)cc1Cl` came in with an XC50 of 913 nM. For `C[C@@H](Oc1cc(-n2cnc3ccc(NC(=O)CCN4CCCCC4)cc32)sc1C(N)=O)c1ccccc1Cl` the value was 991 nM; for `Cn1cc(-c2ccccc2C(=O)O)c(=O)c2cc(Cl)ccc21`, 917 nM. Under `Nc1ncc(-c2ccsc2)cc1-c1nc2ccccc2[nH]1` stands 851 nM; under `CC(C)CCN1CCCN(Cc2cccc(NC(=O)c3ccc(-c4ccccc4)cc3)c2)CC1`, 888 nM; under `Cc1c(CNCCCNc2nc3ccccc3[nH]2)[nH]c2cc(Cl)cc(Cl)c12`, 232 nM. For `CC[C@H]1CN2CC[C@@H]1C[C@H]2[C@H](O)c1cc(-c2ccc(F)cc2)nc2ccc(O)cc12` the value was 140 nM; for `CCN(CCCN1CCCCC1)c1cc(C)nc(Nc2ccc(C)c(Cl)c2)n1`, 207 nM; for `CC(C)Sc1nc2c(c(=O)n1CCc1ccccc1)C1(CCCC1)Cc1ccccc1-2`, 347 nM. Turning to `c1cncc(CNc2ncc(-c3ccsc3)c(-c3nccs3)n2)c1`, the XC50 worked out at 1380 nM.

In turn, `COc1ccc(NC(=O)[C@H](Cc2ccccc2)Nc2cc(C)nc(NCCOc3ccccc3)n2)cc1` came in with an XC50 of 1070 nM.

As to `CC(C)CNCc1cccc(-c2cccc(CN(C(=O)Nc3ccccc3)C3CCN(Cc4ccccc4)CC3)c2)c1`, the XC50 was found to be 369 nM.

`CCN(c1ccc(O)c(CN2CCCCC2)c1)c1ccc([N+](=O)[O-])cn1` showed an XC50 of 886 nM. For `CC(C)(C)OC(=O)NCc1ccc(Nc2nnc(-c3cccc(C(=O)NCCC(c4ccccc4)c4ccccc4)c3)o2)cc1` the value was 581 nM; for `CC(Oc1ccc(C(=O)c2ccc(F)cc2)cc1)C(=O)N1CCc2ccccc21` (stereo not given), 413 nM. With `COc1ccc(NC(=O)Nc2ccc(-c3cccc(-c4nc5ccccc5[nH]4)c3)cc2)cc1`, the XC50 amounted to 764 nM. Under `C#CCN(Cc1cc2c(=O)[nH]c(N)nc2cc1C)c1ccc(C(=O)N[C@@H](CCC(=O)O)C(=O)O)cc1` stands 625 nM. For `COc1cccc(C(=O)NCCc2cccc(Cl)c2)c1Oc1ccccc1` the value was 844 nM; for `O=c1cc(NCCCNC2CCCc3c2cc(Cl)c(Cl)c3Cl)[nH]c2ccccc12` (stereo not given), 276 nM. Under `CN(C)C(CNC(=O)c1cc(-c2ccncc2)c(-c2ccc(Cl)c(O)c2)o1)c1ccccc1` (stereo not given) stands 843 nM; under `O=[N+]([O-])c1ccc(C2=NN(S(=O)(=O)c3c(Cl)cc(Cl)cc3Cl)CCCC2)cc1`, 125 nM; under `COc1c(C2CCN(CCCCNC(=O)c3cc(-c4ccc(Cl)cc4)[nH]c3C)CC2)ccc2c1CCCC2`, 970 nM. `Cc1cc(N2Cc3ccccc3C2)nc(Nc2ccc(S(=O)(=O)N3CCOCC3)cc2)n1` registered an XC50 of 1110 nM.

For `COc1cc2nc(SCC(C)C)n(CCCn3ccnc3)c(=N)c2cc1OC`, the XC50 is 610 nM. Under `COc1cc2c(cc1C(F)(F)F)N(C(=O)Nc1cc(F)c(F)c(-c3cccnc3)c1)CC2` stands 626 nM.
